Data as given in the supplement of paper PMC10307832.

What was measured:
Assay in all cases: relative viability (nuclei count vs DMSO), 5 days (fraction); higher = more cells survive
[1] = compound: C1COCCN1CC2=CC(=O)C(=CO2)OCCCCCSC3=C4C=CC(=CC4=NC=C3)C(F)(F)F [EHT 1864] + CC(=O)c1c(C)c2cnc(Nc3ccc(N4CCNCC4)cn3)nc2n(C2CCCC2)c1=O [Palbociclib] (partner 0.5 µM)
In short: (§1)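 Values are medians from duplicate plates. Each reflects relative viability, defined as the nuclei count of treated wells over that of vehicle wells. Lung cancer cell lines in 1536-well plates were pin-tool dosed one day after seeding with one drug alone or with a fixed anchor-drug dose plus five library-drug doses (not always all listed) in √10 steps, then fixed, stained and imaged at 4× after 5 days.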

[2] = compound: C1COCCN1CC2=CC(=O)C(=CO2)OCCCCCSC3=C4C=CC(=CC4=NC=C3)C(F)(F)F [EHT 1864] + CC(C)C[C@H](NC(=O)[C@H](Cc1ccccc1)NC(=O)c1cnccn1)B(O)O [Bortezomib] (partner 0.002 µM)
In short: as §1

[3] = compound: C1COCCN1CC2=CC(=O)C(=CO2)OCCCCCSC3=C4C=CC(=CC4=NC=C3)C(F)(F)F [EHT 1864] + COc1cc2c(Oc3ccc(NC(=O)C4(C(=O)Nc5ccc(F)cc5)CC4)cc3F)ccnc2cc1OCCCN1CCOCC1 [Foretinib] (partner 0.25 µM)
In short: as §1

[4] = compound: C1COCCN1CC2=CC(=O)C(=CO2)OCCCCCSC3=C4C=CC(=CC4=NC=C3)C(F)(F)F [EHT 1864] + CS(=O)(=O)N1CCN(Cc2cc3nc(-c4cccc5[nH]ncc45)nc(N4CCOCC4)c3s2)CC1 [Pictilisib] (partner 1 µM)
In short: as §1

Row | Cell Line | relative viability ([1]; first compound 0.04 µM) | relative viability ([1]; first compound 0.1265 µM) | relative viability ([1]; first compound 0.4 µM) | relative viability ([1]; first compound 1.265 µM) | relative viability ([1]; first compound 4 µM) | relative viability ([2]; first compound 0.04 µM) | relative viability ([2]; first compound 0.1265 µM) | relative viability ([2]; first compound 0.4 µM) | relative viability ([2]; first compound 1.265 µM) | relative viability ([2]; first compound 4 µM) | relative viability ([3]; first compound 0.04 µM) | relative viability ([3]; first compound 0.1265 µM) | relative viability ([3]; first compound 0.4 µM) | relative viability ([3]; first compound 1.265 µM) | relative viability ([3]; first compound 4 µM) | relative viability ([4]; first compound 0.04 µM) | relative viability ([4]; first compound 0.1265 µM) | relative viability ([4]; first compound 0.4 µM) | relative viability ([4]; first compound 1.265 µM) | relative viability ([4]; first compound 4 µM)
1 | HCC-78 | 0.414 | 0.568 | 0.46 | 0.493 | 0.478 | 0.409 | 0.534 | 0.432 | 0.456 | 1.1 | 0.578 | 0.474 | 0.538 | 0.606 | 0.633 | 0.262 | 0.209 | 0.242 | 0.205 | 0.25
2 | HCC-366 | 0.42 | 0.319 | 0.348 | 0.327 | 0.361 | 1.03 |  | 0.928 | 1.03 | 1.11 | 0.914 | 0.859 | 0.888 | 0.891 | 0.963 | 0.137 | 0.146 | 0.128 | 0.149 | 0.138
3 | HCC-827 | 0.57 | 0.498 | 0.508 | 0.473 | 0.386 | 1.1 | 0.844 | 0.999 | 1.11 | 0.985 | 0.985 | 0.965 | 1.01 | 0.977 | 0.928 | 1.15 | 1.11 | 1 | 0.875 | 1.12
4 | HOP-62 | 0.453 |  | 0.516 | 0.438 | 0.425 | 1.18 |  | 0.618 | 1.08 | 0.986 | 1.02 |  | 1.03 | 0.991 | 1.13 | 0.788 |  | 0.612 | 0.804 | 1.09
5 | IA-LM |  |  |  |  |  | 0.821 | 0.553 | 0.956 | 0.709 | 0.536 | 1.21 |  | 1.09 | 1.03 | 0.901 | 0.421 |  | 0.38 | 0.387 | 0.384
6 | LC-2-ad | 0.481 | 0.436 | 0.447 | 0.46 | 0.464 | 0.924 |  | 0.993 | 1.04 | 0.903 | 0.859 |  | 0.905 | 1.01 | 0.962 | 0.335 |  | 0.491 | 0.503 | 0.508
7 | LCLC-97TM1 | 0.225 | 0.15 | 0.183 | 0.187 | 0.241 | 0.754 | 0.53 | 0.75 | 0.401 | 0.7 | 0.848 | 0.842 | 0.948 | 0.939 | 0.949 | 0.222 |  | 0.161 | 0.224 | 0.227
8 | LCLC-103H | 0.506 | 0.393 | 0.504 | 0.467 | 0.498 | 1.18 | 1.01 | 1.14 | 1.06 | 1.02 | 0.791 | 0.618 | 0.736 | 0.637 | 0.733 | 0.656 | 0.482 | 0.667 | 0.661 | 0.547
9 | LK-2 | 0.67 |  | 0.523 | 0.639 | 0.588 |  |  |  |  |  | 1.14 |  | 0.919 | 0.982 | 1.35 | 0.614 | 0.487 | 0.591 | 0.479 | 0.661
10 | NCI-H358 | 0.14 | 0.117 | 0.133 | 0.135 | 0.124 |  |  |  |  |  | 0.689 | 0.613 | 0.848 | 0.637 | 0.621 | 0.349 |  | 0.342 | 0.315 | 0.3
11 | NCI-H522 | 1.11 | 1.02 | 0.948 | 1 | 1.05 |  |  |  |  |  |  |  |  |  |  |  |  |  |  | 
12 | NCI-H596 |  |  |  |  |  | 0.836 | 0.637 | 0.976 | 1.01 | 1.05 | 0.836 | 0.701 | 0.752 | 0.745 | 0.821 | 0.374 | 0.445 | 0.388 | 0.334 | 0.373
13 | NCI-H1395 | 0.61 | 0.595 | 0.631 | 0.57 | 0.614 |  |  |  |  |  | 1.03 | 0.924 | 0.897 | 1.02 | 0.859 | 0.66 | 0.557 | 0.58 | 0.59 | 0.588
14 | NCI-H1563 |  |  |  |  |  | 0.901 | 0.853 | 0.861 | 0.89 | 0.751 | 0.962 | 0.896 | 0.978 | 0.857 | 0.908 | 0.62 | 0.637 | 0.638 | 0.656 | 0.669
15 | NCI-H1648 | 0.261 |  | 0.269 | 0.258 | 0.278 |  |  |  |  |  |  |  |  |  |  |  |  |  |  | 
16 | NCI-H1703 |  |  |  |  |  | 0.253 | 0.427 | 0.363 | 0.307 | 0.315 | 0.309 |  | 0.299 | 0.339 | 0.382 | 0.222 | 0.245 | 0.26 | 0.251 | 0.266
17 | NCI-H1792 | 0.618 | 0.694 | 0.683 | 0.626 | 0.742 | 0.859 | 0.877 | 0.926 | 0.866 | 0.919 |  |  |  |  |  | 0.259 | 0.302 | 0.27 | 0.288 | 0.348
18 | NCI-H1793 | 0.242 | 0.281 | 0.315 | 0.28 | 0.373 |  |  |  |  |  | 0.604 |  | 0.667 |  | 0.789 |  | 0.465 | 0.366 | 0.3 | 0.311
19 | NCI-H1944 | 0.327 |  | 0.353 | 0.311 | 0.332 |  |  |  |  |  | 0.893 |  | 0.882 | 0.89 | 0.701 | 0.355 |  | 0.344 | 0.359 | 0.312
20 | NCI-H2170 | 0.381 | 0.308 | 0.408 | 0.356 | 0.395 |  |  |  |  |  | 1.01 | 1.01 | 0.998 | 0.943 | 1 | 0.371 | 0.272 | 0.374 | 0.309 | 0.275
21 | NCI-H2342 | 0.487 | 0.485 | 0.505 | 0.554 | 0.551 |  |  |  |  |  | 1.04 | 0.903 | 1.07 | 0.963 | 1.06 |  |  |  |  | 
22 | SK-MES-1 | 0.379 | 0.3 | 0.356 | 0.301 | 0.342 |  |  |  |  |  | 0.951 | 0.866 | 1.06 | 1.11 | 0.799 | 0.398 | 0.361 | 0.34 | 0.337 | 0.315
23 | SW 900 | 0.515 |  | 0.586 | 0.573 | 0.498 |  |  |  |  |  | 0.524 |  | 0.862 | 0.89 | 0.687 |  |  |  |  | 
